Legend:
Assay in all cases: competitive isoTOP-ABPP
Assay type in all cases: binding
[1] = biological target: T1, PTGR1 Prostaglandin reductase 1 (Homo sapiens, UniProt Q14914)
T1 construct: isoTOP-ABPP experiments performed in cell lysates (in vitro); endogenous in cells; host or cells: soluble proteome of human cancer cell lines (MDA-MB-231; Ramos and Jurkat also prepared)
Method in brief: (§1)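 Probe: STP-alkyne, 0.1 mM, 1 h RT, after fragment pretreatment of lysate (esters 50 μM; guanidinylators 100 μM). Tags: light = compound, heavy = DMSO, via CuAAC. Replicates averaged if SD <60% of mean; otherwise lowest ratio used when any R <4.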

[2] = biological target: T2, UBA2 SUMO-activating enzyme subunit 2 (Homo sapiens, UniProt Q9UBT2); settings: 50 uM, in vitro
T2 construct: endogenous in cells; host or cells: MDA-MB-231 (soluble fraction of lysate)
T2 sequence (Q9UBT2 1-640): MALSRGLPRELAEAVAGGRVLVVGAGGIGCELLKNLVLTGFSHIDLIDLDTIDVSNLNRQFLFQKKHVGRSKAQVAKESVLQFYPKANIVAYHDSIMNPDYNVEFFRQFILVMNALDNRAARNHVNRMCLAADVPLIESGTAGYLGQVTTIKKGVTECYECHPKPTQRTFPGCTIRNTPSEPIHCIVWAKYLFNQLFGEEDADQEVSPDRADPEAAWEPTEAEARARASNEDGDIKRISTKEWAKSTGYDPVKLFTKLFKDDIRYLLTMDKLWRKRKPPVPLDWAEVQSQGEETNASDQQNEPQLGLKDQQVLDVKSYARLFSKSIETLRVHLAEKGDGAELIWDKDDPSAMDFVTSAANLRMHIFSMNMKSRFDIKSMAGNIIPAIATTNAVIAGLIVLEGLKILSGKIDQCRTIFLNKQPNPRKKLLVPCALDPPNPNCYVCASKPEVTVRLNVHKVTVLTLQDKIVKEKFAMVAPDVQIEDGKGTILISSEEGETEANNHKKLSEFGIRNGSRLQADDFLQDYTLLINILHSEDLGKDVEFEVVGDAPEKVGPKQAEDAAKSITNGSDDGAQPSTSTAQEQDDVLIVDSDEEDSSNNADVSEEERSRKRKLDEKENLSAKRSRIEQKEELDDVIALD
T2 sequence (Q9UBE0 1-346 partner): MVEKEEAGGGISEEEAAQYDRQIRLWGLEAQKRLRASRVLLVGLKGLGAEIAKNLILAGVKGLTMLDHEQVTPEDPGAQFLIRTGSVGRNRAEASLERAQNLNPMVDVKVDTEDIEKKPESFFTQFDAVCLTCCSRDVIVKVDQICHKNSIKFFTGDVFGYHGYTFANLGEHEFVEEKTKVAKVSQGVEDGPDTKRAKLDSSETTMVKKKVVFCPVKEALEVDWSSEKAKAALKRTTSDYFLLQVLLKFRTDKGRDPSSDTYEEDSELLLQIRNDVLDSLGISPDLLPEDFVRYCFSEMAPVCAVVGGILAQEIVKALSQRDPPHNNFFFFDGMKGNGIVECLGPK
Method in brief: as §1

[3] = biological target: T3, MAP4K5 Mitogen-activated protein kinase kinase kinase kinase 5 (Homo sapiens, UniProt Q9Y4K4); settings: 50 uM, 231 sol, in vitro
T3 construct: endogenous in cells; host or cells: MDA-MB-231 (soluble fraction of lysate)
T3 sequence (Q9Y4K4 whole entry): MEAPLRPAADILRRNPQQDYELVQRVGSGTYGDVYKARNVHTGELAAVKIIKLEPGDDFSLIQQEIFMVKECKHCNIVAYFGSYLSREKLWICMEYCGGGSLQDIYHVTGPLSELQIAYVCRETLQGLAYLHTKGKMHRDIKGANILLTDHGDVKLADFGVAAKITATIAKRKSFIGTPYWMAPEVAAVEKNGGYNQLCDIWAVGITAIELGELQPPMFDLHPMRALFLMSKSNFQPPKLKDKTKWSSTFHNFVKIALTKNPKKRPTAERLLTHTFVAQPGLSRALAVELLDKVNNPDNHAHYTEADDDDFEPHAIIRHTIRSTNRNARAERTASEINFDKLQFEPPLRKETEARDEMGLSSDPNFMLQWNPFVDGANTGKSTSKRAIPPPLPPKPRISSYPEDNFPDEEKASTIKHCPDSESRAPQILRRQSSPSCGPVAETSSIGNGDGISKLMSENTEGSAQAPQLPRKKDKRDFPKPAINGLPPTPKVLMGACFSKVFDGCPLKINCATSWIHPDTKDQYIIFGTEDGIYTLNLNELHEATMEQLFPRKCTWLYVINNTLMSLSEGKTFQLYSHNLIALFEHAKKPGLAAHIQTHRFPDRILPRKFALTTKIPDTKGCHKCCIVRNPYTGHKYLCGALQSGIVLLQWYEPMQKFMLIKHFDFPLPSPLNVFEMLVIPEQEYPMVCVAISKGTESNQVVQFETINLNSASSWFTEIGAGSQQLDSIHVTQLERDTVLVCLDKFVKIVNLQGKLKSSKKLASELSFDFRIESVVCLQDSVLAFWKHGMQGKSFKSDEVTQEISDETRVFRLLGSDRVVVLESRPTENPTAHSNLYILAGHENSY
Method in brief: as §1

[4] = biological target: T4, REEP5 Receptor expression-enhancing protein 5 (Homo sapiens, UniProt Q00765)
T4 construct: isoTOP-ABPP experiments performed in cell lysates (in vitro); endogenous in cells; host or cells: soluble proteome of human cancer cell lines (MDA-MB-231, Ramos, Jurkat)
T4 sequence (Q00765 whole entry): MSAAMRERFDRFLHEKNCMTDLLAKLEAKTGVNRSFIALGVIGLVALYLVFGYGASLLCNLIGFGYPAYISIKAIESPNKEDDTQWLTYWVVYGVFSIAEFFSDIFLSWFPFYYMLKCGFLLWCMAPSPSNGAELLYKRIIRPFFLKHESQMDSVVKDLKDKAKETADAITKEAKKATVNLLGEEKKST
Method in brief: as §1

[5] = biological target: T5, F3 Tissue factor (Homo sapiens, UniProt P13726); settings: for isoTOP-ABPP ratio (R) at liganded lysine P13726_K279: 50 uM, in vitro, sol, 231
T5 construct: isoTOP-ABPP experiments performed in cell lysates (in vitro); endogenous in cells; host or cells: soluble proteome of human cancer cell lines (MDA-MB-231; Ramos and Jurkat also prepared)
T5 sequence (P13726 33-295): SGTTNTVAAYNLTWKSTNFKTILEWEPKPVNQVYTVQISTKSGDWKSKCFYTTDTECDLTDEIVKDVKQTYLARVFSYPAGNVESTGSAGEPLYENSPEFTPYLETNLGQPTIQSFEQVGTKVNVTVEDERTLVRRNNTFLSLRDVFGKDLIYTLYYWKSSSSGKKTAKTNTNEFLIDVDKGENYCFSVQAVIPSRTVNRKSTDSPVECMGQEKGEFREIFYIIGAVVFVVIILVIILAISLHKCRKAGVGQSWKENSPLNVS
Method in brief: as §1

T1 sequence (Q14914 whole entry): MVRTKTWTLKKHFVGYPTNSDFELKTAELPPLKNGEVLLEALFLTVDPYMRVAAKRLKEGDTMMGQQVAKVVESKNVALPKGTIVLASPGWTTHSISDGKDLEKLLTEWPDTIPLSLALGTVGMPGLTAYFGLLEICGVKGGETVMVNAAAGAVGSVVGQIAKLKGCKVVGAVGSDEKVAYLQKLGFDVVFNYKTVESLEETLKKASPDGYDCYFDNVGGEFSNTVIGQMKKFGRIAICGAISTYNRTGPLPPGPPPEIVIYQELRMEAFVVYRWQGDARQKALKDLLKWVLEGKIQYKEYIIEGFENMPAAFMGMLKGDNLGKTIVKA

O=C(Oc1c(F)c(F)c(F)c(F)c1F)C(c1ccccc1)c1ccccc1 [fragment 20, Pentafluorophenyl 2,2-diphenylacetate]
R value (DMSO/fragment) for probe 1 labeling ([1]; Q14914_K194, 50 uM, 231 sol, in vitro): 1.6 | R value (DMSO/fragment) for probe 1 labeling ([2]; Q9UBT2_K409, 231 sol): 4.1

O=C(Oc1c(F)c(F)c(F)c(F)c1F)c1cc(C(F)(F)F)cc(C(F)(F)F)c1 [fragment 21, Pentafluorophenyl 3,5-bis(trifluoromethyl)benzoate]
R value (DMSO/fragment) for probe 1 labeling ([3]; Q9Y4K4_K49): 0.6

Cn1cc(CC(=O)Oc2c(F)c(F)c(F)c(F)c2F)c2ccccc21 [fragment 22, Pentafluorophenyl 2-(1-methyl-1H-indol-3-yl)acetate]
R value (DMSO/fragment) for probe 1 labeling ([4]; Q00765_K147, 50 uM, 231 sol, in vitro): 4.8

O=C(CCc1cn(-c2ccccc2)nc1-c1ccccc1)Oc1ccc([N+](=O)[O-])cc1[N+](=O)[O-] [fragment 29, 2,4-Dinitrophenyl 3-(1,3-diphenyl-1H-pyrazol-4-yl)propanoate]
isoTOP-ABPP reactivity ratio at lysine Q9Y4K4_K49 [3]: 1.8

O=C(Oc1ccc([N+](=O)[O-])cc1[N+](=O)[O-])C(c1ccccc1)c1ccccc1 [fragment 30, 2,4-Dinitrophenyl 2,2-diphenylacetate]
isoTOP-ABPP reactivity ratio at lysine Q00765_K147 ([4]; 50 uM, 231 sol, in vitro): 20.0 | isoTOP-ABPP reactivity ratio at lysine Q9UBT2_K409 ([2]; 231 sol): 7.3

O=C(Oc1ccc([N+](=O)[O-])cc1[N+](=O)[O-])c1cc(C(F)(F)F)cc(C(F)(F)F)c1 [fragment 31, 2,4-Dinitrophenyl 3,5-bis(trifluoromethyl)benzoate]
isoTOP-ABPP reactivity ratio at lysine Q00765_K147 ([4]; 50 uM, 231 sol, in vitro): 3.0 | isoTOP-ABPP reactivity ratio at lysine Q9UBT2_K409 ([2]; 231 sol): 6.2

Cn1cc(CC(=O)Oc2ccc([N+](=O)[O-])cc2[N+](=O)[O-])c2ccccc21 [fragment 32, 2,4-Dinitrophenyl 2-(1-methyl-1H-indol-3-yl)acetate]
isoTOP-ABPP reactivity ratio at lysine Q9Y4K4_K49 [3]: 5.3

O=C(CCc1coc2cc(F)ccc2c1=O)Oc1ccc([N+](=O)[O-])cc1[N+](=O)[O-] [fragment 36, 2,4-Dinitrophenyl 3-(7-fluoro-4-oxo-4H-chromen-3-yl)propanoate]
isoTOP-ABPP ratio (R) at liganded lysine Q14914_K194 ([1]; 50 uM, in vitro, sol, 231): 1.7 | isoTOP-ABPP ratio (R) at liganded lysine Q9UBT2_K409 ([2]; sol, 231): 3.6

O=C(Oc1ccc([N+](=O)[O-])cc1[N+](=O)[O-])c1ccc(Oc2ccccc2)cc1 [fragment 39, 2,4-Dinitrophenyl 4-phenoxybenzoate]
isoTOP-ABPP ratio (R) at liganded lysine Q00765_K147 ([4]; 50 uM, in vitro, sol, 231): 1.2 | isoTOP-ABPP ratio (R) at liganded lysine P13726_K279 [5]: 1.8

CC(=O)Oc1ccc([N+](=O)[O-])cc1[N+](=O)[O-] [fragment 43, 2,4-Dinitrophenyl acetate]
isoTOP-ABPP ratio (R) at liganded lysine P13726_K279 [5]: 1.1

N#Cc1ccc(C(=O)Oc2ccc([N+](=O)[O-])cc2[N+](=O)[O-])cc1 [fragment 44, 2,4-Dinitrophenyl 4-cyanobenzoate]
isoTOP-ABPP ratio, lysine P13726_K279 ([5]; 50 uM_231_sol_in vitro): 1.1

O=C(CCc1ccc2c(c1)OCO2)Oc1ccc([N+](=O)[O-])cc1[N+](=O)[O-] [fragment 45, 2,4-Dinitrophenyl 3-(benzo[d][1,3]dioxol-5-yl)propanoate]
isoTOP-ABPP ratio, lysine Q00765_K147 ([4]; 50 uM_231_sol_in vitro): 2.7 | isoTOP-ABPP ratio, lysine Q14914_K194 ([1]; 50 uM_231_sol_in vitro): 5.5 | isoTOP-ABPP ratio, lysine P13726_K279 ([5]; 50 uM_231_sol_in vitro): 4.2

COC(=O)NC(=NC(=O)OCC1c2ccccc2-c2ccccc21)n1cccn1 [fragment 49, N-Methoxycarbonyl-N′-9-fluorenylmethoxycarbonyl-pyrazole-1-carboxamidine]
isoTOP-ABPP ratio, lysine Q14914_K194 ([1]; 100 uM_231_sol_in vitro): 1.3

CC(C)(C)OC(=O)N=C(NC(=O)OC(C)(C)C)n1cccn1 [fragment 50, reference compound]
isoTOP-ABPP ratio, lysine Q14914_K194 ([1]; 100 uM_231_sol_in vitro): 1.2 | isoTOP-ABPP ratio, lysine P13726_K279 ([5]; 100 uM_231_sol_in vitro): 1.0

Reference: patent publication US20210255193A1, “LYSINE REACTIVE PROBES AND USES THEREOF” (The Scripps Research Institute, priority 2017, published 2021)
